Biological target: PP1α (Homo sapiens, UniProt P62136)
Test: Nuclear and cytoplasmic distribution of PP1α-EGFP in HeLa and 293T cells
Assay type: cell-based
Set-up: expressed in transfected cells; host or cells: HeLa; 293T
Source text: In live cells, PP1α is dynamically distributed between the cytoplasm and the nucleus, and its shuttling into the nucleus is thought to be regulated by its interaction with sds22 and inhibitor-3 regulatory subunits. […] We analyzed the effect of 1H4 on nuclear localization of PP1α in HeLa cells that were transfected with Flag-Tat and PP1α-EGFP expression vectors and treated with 1H4 or a control compound for 18hrs. In untreated cells, PP1α was localized in the perinuclear area and cytoplasm (Fig. 8A). Co-expression of Tat increased nuclear and perinuclear localization of PP1α (Fig. 8B). Co-expression of mutant Tat ^35QACA^38 in contrast led to a more homogeneous distribution of PP1α (Fig. 8C). […] To achieve quantifiable results, we measured fluorescence of PP1α-EGFP in nuclear and cytoplasmic fractions of 293T cells that were transfected with PP1α-EGFP or PP1α-EGFP and Tat expression vectors and treated with 1H4. […]
Figure 8 1H4 compound disrupts the Tat-mediated translocation of PP1 into the nucleus. […] Fluorescence was measured in the nuclear and cytoplasmic fractions using Perkin-Elmer Luminoscan. […]
Nuclear and cytoplasmic extracts were prepared using a modification of previously described method. […] Fluorescence was measured in cytoplasmic and nuclear lysates at 480 nm excitation and 510 nm emission on Luminescence Spectrometer LS50B (Perkin-Elmer).

PP1α, sequence (P62136 whole entry): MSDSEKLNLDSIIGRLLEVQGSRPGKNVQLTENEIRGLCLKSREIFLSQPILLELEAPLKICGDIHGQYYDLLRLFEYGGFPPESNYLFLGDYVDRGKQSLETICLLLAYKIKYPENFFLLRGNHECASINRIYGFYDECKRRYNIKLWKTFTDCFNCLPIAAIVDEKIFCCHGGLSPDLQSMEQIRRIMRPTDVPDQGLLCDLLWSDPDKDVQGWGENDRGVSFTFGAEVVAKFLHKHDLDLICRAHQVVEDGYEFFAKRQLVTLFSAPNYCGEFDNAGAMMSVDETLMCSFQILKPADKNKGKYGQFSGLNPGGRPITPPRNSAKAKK

COCCNC(=O)COC(=O)c1c2c(nc3ccccc13)/C(=C/c1ccc(O)cc1)CCC2 [1H4]
Nuclear PP1α-EGFP fluorescence in fractionated cells (293T cells, absence and presence of Tat, versus untreated or 1G3): significant decrease of nuclear PP1α-EGFP | Nuclear localization of PP1α in presence of Tat (fluorescence microscopy) (HeLa cells, Flag-Tat and PP1α-EGFP, 10 µM, 18 hours): diminished nuclear localization of PP1α
